Laboratory results taken from patent US9611286B2, “Ruthenium carbon monoxide releasing molecules and uses thereof” (Alfama, Inc., priority 2011, dated 2017).

Target: T1, Hen Egg White Lysozyme C (Gallus gallus, UniProt P00698)
T1 construct: one corresponding to the mass of native lysozyme (14305=calculated mass); from tissue; host or cells: hen egg white
Experiment: Hen egg white lysozyme (HEWL) assay, reactivity with proteins by LC-MS
Format: binding
Conditions: 10 equiv in H2O, room temperature, 10 minutes and 1 hour
Excerpt: The hen egg white lysozyme (HEWL) assay was used to assess the reactivity of Compound 1 in the presence of proteins (see, e.g., Santos-Silva, T. et al. J Am Chem Soc (2011) 133, 1192-1195). This paper describes the interactions of CORM-3 with plasma proteins. CORM-3 reacts rapidily with proteins, losing chloride ion, glycinate, and one CO ligand. […] It was observed that CORM-3 reacts faster and has a much weaker efficacy than Compound 1 in this ECM treatment.
Liquid chromatography-mass spectrometry (LC-MS) was performed on a Micromass Quattro API instrument (ESI-TOF-MS) coupled to a Waters Alliance 2795 HPLC using a MassPREP On-Line Desalting Cartridge. […]
Hen Egg White Lysozyme C (PDB code 3b61; UniProtKB/Swiss-Prot code P00698). […] Quantitative determination of lysozyme-ligand binding in the solution and gas phases by electrospray ionisation mass spectrometry follows Veros et al., Rapid Commun. […] A 50 μL aliquot was analyzed by LC-MS (calculated average isotopic mass of the egg white lysozyme=14305.1).
Santos-Silva and co-workers previously describe CORM-3's reactivity towards proteins and formation of a Ru(II) dicarbonyl-lysozyme complex (see, e.g., Santos-Silva et al., J. Am. Chem. Soc. (2011) 133:1192-1195). […] 50 μL aliquots were collected and analyzed by LC-MS over the reaction time (10 minutes and 1 hour). […]

T1 sequence (P00698 19-147): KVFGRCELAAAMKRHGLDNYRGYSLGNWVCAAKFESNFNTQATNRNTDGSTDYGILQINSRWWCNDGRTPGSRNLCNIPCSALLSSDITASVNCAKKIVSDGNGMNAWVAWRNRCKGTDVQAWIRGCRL

C[SH]([C@@H]1OC(CO)[C@H](O)[C@H](O)C1O)[Ru]([Cl])([Cl])([CH]=O)([CH]=O)[CH]=O (stereo partly shown) [Compound 1, Tricarbonyldichloro(methylthiogalactopyranoside) Ru(II)]
reactivity with HEWL (adduct formation): forms protein-Ru^II(CO)2 adducts but reacts slower than CORM-3
